In US11957684B2, “Treatment of heavy menstrual bleeding associated with uterine fibroids” (Sumitomo Pharma Switzerland GmbH, priority 2016, dated 2024):
Values joined by “and” are separate entries in the source; they are usually repeats but may differ in a detail not shown here. Equal values may be shown once.

Tests used:
clinical = settings: for half-life: human, in vivo
Excerpt: (See J. W. Ng, et al., “Dose-Dependent Suppression of Gonadotropins and Ovarian Hormones by Elagolix in Healthy Premenopausal Females” (poster, 2016); J. Grundy, et al., […] (2008), Vol 83: Supplement 1, S9).

FIG. 12 = assay: FIG. 12
Excerpt: Table printed on a drawing sheet, FIG. 12
The patent's description of the figure: FIG. 12 is a table of urine PK parameters for Cohorts 8 to 10 on Day 1 of the treatment period in accordance with Example 4.
First reader's note: Per the description these are urine PK parameters for Cohorts 8 to 10 on Day 1; each column is one dose group.

FIG. 11 = assay: FIG. 11
Excerpt: Table printed on a drawing sheet, FIG. 11
The patent's description of the figure: FIG. 11 is a table of plasma and urine PK parameters for Cohorts 8 to 10 on Days 1 and 14 of the treatment period in accordance with Example 4.
First reader's note: Each column is one dose cohort on one treatment day; the Min and Max rows give the range of the median Tmax, and 'nc' is not explained on the sheet.

[1] = tested on: healthy pre-menopausal women; assay: Example 9: pharmacodynamics, menstruation, hot flash diary, bone resorption markers; type: in vivo, human
Excerpt: Methods: This was a 6-week phase 1, randomized, open-label, parallel-group, study conducted at 4 sites in the US. […] The first day of dosing occurred on Day 1 to 6 of the menstrual cycle. Hormonal preparations were prohibited for at least 3 months prior to screening. […] Vasomotor symptoms were captured using a daily diary (from screening until follow-up).

[2] = tested on: LH, FSH, estradiol (E2), progesterone (P); assay: Example 5A: serum LH, FSH, E2, P; type: in vivo, human
Protocol: At Visit 3, blood was drawn twice, at 0.5 to 1.5 hours postdose and at 2 to 5 hours postdose, from each evaluable subject. At Visits 4, 5 and 6, blood was drawn once immediately prior to the dose for each day, and again at 0.5 to 1.5 hours postdose and at 2 to 5 hours postdose, from each evaluable subject. Blood was drawn only once for patients who took the study drug for the day before visiting the investigational site. At Visit 7, blood was drawn only once at the visit.

[3] = tested on: healthy premenopausal women; assay: Example 4: safety and tolerability; type: in vivo, human; settings: single doses up to 80 mg, up to 40 mg QD for 14 days
Excerpt: The study was a phase 1, double-blind, randomized, placebo-controlled, sequential-panel, ascending single- and multiple-dose study in healthy premenopausal women. Ten groups, each of 12 healthy premenopausal, adult women, participated in the study (Cohorts 1 to 10).
Serum chemistry, hematology, urinalysis, vital signs, and ECGs were monitored during the study up to 1 week after the last dose. There were no meaningful changes in these parameters in the Compound 1 dose groups compared with placebo. QT and corrected QT interval (QTc) intervals >450 msec and […] were seen across all dose groups, including the placebo group.

FIG. 6B = assay: FIG. 6B
Protocol: Table printed on a drawing sheet, FIG. 6B
The patent's description of the figure: FIGS. 6A-C are tables of plasma PK parameters for Cohort 7 in accordance with Example 4.
First reader's note: Part of a plasma PK table series (FIGS. 6A-C) for Cohort 7; each column is a fed or fasted 40 mg arm.

## CONC(=O)Nc1ccc(-c2sc3c(c2CN(C)C)c(=O)n(-c2ccc(OC)nn2)c(=O)n3Cc2c(F)cccc2F)cc1 [Compound 1, N-(4-(1-(2,6-difluorobenzyl)-5-((dimethylamino)methyl)-3-(6-methoxy-3-pyridazinyl)-2,4-dioxo-1,2,3,4-tetrahydrothieno[2,3-d]pyrimidin-6-yl)phenyl)-N′-methoxyurea]
clinical; 40 mg per day
  E2 in the majority of subjects: below 10 pg/mL
clinical; T1/2, highest found
  half-life: ~61 h
clinical; half-life (T1/2)
  half-life: 37 to 42 h
FIG. 12
  CLr (L/hr) | Mean: 7.1595 L/h and 6.7303 L/h and 7.7148 L/h
  Fe (%) | Mean: 0.639% and 0.938% and 1.209%
FIG. 11
  Tmax (hr) | Median: 1.00 h
[1]; last 28 days of treatment
  No bleeding: 18 (72.0%) n (%)
  No light/normal/heavy bleeding (i.e., no bleeding except spotting): 22 (88.0%) n (%)
  No normal/heavy bleeding: 23 (92.0%) n (%)
  subjects reporting no menstrual bleeding (except spotting): 88.0%
  subjects reporting no normal or heavy bleeding: 92.0%
[1]; week 6
  average number of hot flash per subject (any severity): 72.6
  number of hot flash in subjects reporting severe hot flash: 63.2
  proportion of subjects reporting hot flash: 60%
[2]; 10 mg, Week 2
  median serum E2: 82.5 pg/mL
  median serum FSH: 5.990 mIU/mL
  median serum LH: 3.815 mIU/mL
  median serum P: 0.315 ng/mL
[2]; 10 mg, Week 4
  median serum E2: 58.0 pg/mL
  median serum FSH: 5.225 mIU/mL
  median serum LH: 2.565 mIU/mL
  median serum P: 0.440 ng/mL
[2]; 10 mg, Week 8
  median serum E2: 52.0 pg/mL
  median serum FSH: 6.150 mIU/mL
  median serum LH: 3.460 mIU/mL
  median serum P: 0.360 ng/mL
[2]; 10 mg, Week 12
  median change in serum E2 from baseline: 0.0 pg/mL
  median change in serum FSH from baseline: −1.060 mIU/mL
  median change in serum LH from baseline: 0.420 mIU/mL
  median change in serum P from baseline: 0.080 ng/mL
  median serum E2: 57.0 pg/mL
  median serum FSH: 6.200 mIU/mL
  median serum LH: 3.550 mIU/mL
  median serum P: 0.410 ng/mL
[2]; 20 mg, Week 2
  median serum E2: 25.0 pg/mL
  median serum FSH: 5.705 mIU/mL
  median serum LH: 2.520 mIU/mL
  median serum P: 0.235 ng/mL
[2]; 20 mg, Week 4
  median serum E2: 23.5 pg/mL
  median serum FSH: 4.660 mIU/mL
  median serum LH: 1.750 mIU/mL
  median serum P: 0.270 ng/mL
[2]; 20 mg, Week 8
  median serum E2: 16.0 pg/mL
  median serum FSH: 4.840 mIU/mL
  median serum LH: 2.260 mIU/mL
  median serum P: 0.250 ng/mL
[2]; 20 mg, Week 12
  median change in serum E2 from baseline: -18.5 pg/mL
  median change in serum FSH from baseline: −0.720 mIU/mL
  median change in serum LH from baseline: −0.895 mIU/mL
  median change in serum P from baseline: -0.090 ng/mL
  median serum E2: 13.0 pg/mL
  median serum FSH: 5.710 mIU/mL
  median serum LH: 2.685 mIU/mL
  median serum P: 0.250 ng/mL
[2]; 40 mg, Week 2
  median serum FSH: 4.280 mIU/mL
  median serum LH: 0.720 mIU/mL
  median serum P: 0.230 ng/mL
[2]; 40 mg, Week 4
  median serum E2: 0.0 pg/mL
  median serum FSH: 3.710 mIU/mL
  median serum LH: 0.550 mIU/mL
  median serum P: 0.240 ng/mL
[2]; 40 mg, Week 8
  median serum E2: 0.0 pg/mL
  median serum FSH: 3.210 mIU/mL
  median serum LH: 0.570 mIU/mL
  median serum P: 0.220 ng/mL
[2]; 40 mg, Week 12
  median change in serum E2 from baseline: -35.0 pg/mL
  median change in serum FSH from baseline: −3.180 mIU/mL
  median change in serum LH from baseline: −2.760 mIU/mL
  median change in serum P from baseline: -0.060 ng/mL
  median serum E2: 0.0 pg/mL
  median serum FSH: 2.950 mIU/mL
  median serum LH: 0.650 mIU/mL
  median serum P: 0.250 ng/mL
[3]
  safety and tolerability: safe and well tolerated
FIG. 6B
  Lambda_z (1/hr) | Mean: 0.04147 h⁻¹ and 0.04013 h⁻¹
  T1/2 (hr) | Mean: 16.9911 h and 17.6896 h
  Tmax (hr) | Median: 3.005 h and 3.980 h
